Measurements taken from ChEMBL document CHEMBL4732247, “Discovery of A031 as effective proteolysis targeting chimera (PROTAC) androgen receptor (AR) degrader for the treatment of prostate cancer” (Eur J Med Chem, 2021).
Calls of active or inactive are those of the source. The rule behind the calls is not given here.

Assays:
VCaP [1] = experiment: Cytotoxicity against human VCaP cells assessed as growth inhibition at 0.16 uM after 4 days by CCK8 assay relative to control; assay type: functional; conditions: 96 h, time 4 day, read-out: GI
VCaP [2] = experiment: Cytotoxicity against human VCaP cells assessed as growth inhibition at 4 uM after 4 days by CCK8 assay relative to control; assay type: functional; conditions: 96 h, time 4 day, read-out: GI
VCaP [3] = experiment: Cytotoxicity against human VCaP cells assessed as growth inhibition at 0.8 uM after 4 days by CCK8 assay relative to control; assay type: functional; conditions: 96 h, time 4 day, read-out: GI
VCaP [4] = experiment: Cytotoxicity against human VCaP cells assessed as growth inhibition after 4 days by CCK8 assay; assay type: functional, cell-based; conditions: dose 0.032-4 µM, time 4.0 day
VCaP [5] = experiment: Cytotoxicity against human VCaP cells assessed as growth inhibition at 0.032 uM after 4 days by CCK8 assay relative to control; assay type: functional; conditions: 96 h, time 4 day, read-out: GI
[6] = Toxicity in AB zebra fish assessed as rolled over at 5 uM after 5 days relative to control; design: species or system Danio rerio; conditions: zebrafish, 120 h, time 5 day
[7] = Toxicity in AB zebra fish assessed as mortality rate at 10 to 200 uM after 5 days relative to control; design: species or system Danio rerio; conditions: zebrafish, dose 10-200 µM, time 5 day
VCaP [8] = experiment: Antitumour activity against human VcaP cells xenografted in AB zebra fish assessed as tumour growth inhibition at 5 uM after 5 days by CM-D11 dye based fluorescence microscopic method; conditions: 120 h, read-out: TGI
[9] = Toxicity in AB zebra fish assessed as mortality rate at 5 uM after 5 days relative to control; design: species or system Danio rerio; conditions: zebrafish, time 5 day
[10] = Toxicity in AB zebra fish assessed as toxic phenotype at 6.25 to 25 uM after 5 days relative to control; design: species or system Danio rerio; conditions: zebrafish, 120 h, dose 6.25-25 µM, time 5 day
VCaP [11] = experiment: Antitumour activity against human VcaP cells xenografted in AB zebra fish assessed as tumour growth inhibition at 2.8 uM after 5 days by […] dye based fluorescence microscopic method; assay type: functional; conditions: 120 h, time 5 day, read-out: TGI
[12] = target: T1, von Hippel-Lindau disease tumor suppressor/Androgen receptor (Homo sapiens) (UniProt P10275+P40337); experiment: Protac activity at VHL3/AR in human VCAP cells assessed as induction of AR degradation at 2 uM after 2 hrs by western blot analysis relative to control; assay type: cell-based
T1 sequence (P10275 whole entry, looked up): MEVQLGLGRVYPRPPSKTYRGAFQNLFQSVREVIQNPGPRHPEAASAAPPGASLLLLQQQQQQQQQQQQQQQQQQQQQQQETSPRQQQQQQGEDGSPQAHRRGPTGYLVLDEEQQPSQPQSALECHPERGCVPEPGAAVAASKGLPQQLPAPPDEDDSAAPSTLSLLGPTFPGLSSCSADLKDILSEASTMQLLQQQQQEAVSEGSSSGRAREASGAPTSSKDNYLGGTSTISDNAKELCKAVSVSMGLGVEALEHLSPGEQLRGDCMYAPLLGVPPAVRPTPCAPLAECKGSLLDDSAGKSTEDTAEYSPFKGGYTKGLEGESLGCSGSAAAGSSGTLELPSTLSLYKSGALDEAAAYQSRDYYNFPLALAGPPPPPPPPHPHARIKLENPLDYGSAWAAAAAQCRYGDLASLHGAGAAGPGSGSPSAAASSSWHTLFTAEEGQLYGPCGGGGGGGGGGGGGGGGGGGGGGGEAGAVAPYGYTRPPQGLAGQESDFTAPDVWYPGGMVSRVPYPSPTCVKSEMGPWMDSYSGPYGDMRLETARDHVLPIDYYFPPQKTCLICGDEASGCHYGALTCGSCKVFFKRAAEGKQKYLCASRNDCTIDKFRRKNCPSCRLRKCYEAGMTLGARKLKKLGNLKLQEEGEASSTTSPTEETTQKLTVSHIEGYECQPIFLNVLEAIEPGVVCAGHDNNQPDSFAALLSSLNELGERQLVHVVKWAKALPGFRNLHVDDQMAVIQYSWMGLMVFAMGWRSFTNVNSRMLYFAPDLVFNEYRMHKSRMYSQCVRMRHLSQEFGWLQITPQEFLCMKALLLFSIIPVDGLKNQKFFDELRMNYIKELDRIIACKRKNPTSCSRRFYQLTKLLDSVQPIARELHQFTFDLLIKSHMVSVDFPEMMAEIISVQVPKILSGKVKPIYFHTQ
T1 sequence (P40337 whole entry, looked up): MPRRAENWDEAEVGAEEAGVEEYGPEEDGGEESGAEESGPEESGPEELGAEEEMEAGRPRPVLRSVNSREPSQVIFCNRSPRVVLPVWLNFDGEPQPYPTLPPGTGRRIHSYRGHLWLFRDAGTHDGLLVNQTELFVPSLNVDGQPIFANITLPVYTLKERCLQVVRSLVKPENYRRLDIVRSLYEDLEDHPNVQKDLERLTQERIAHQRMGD

[13] = Toxicity in AB zebra fish assessed as maximum non-toxic concentration after 5 days; design: species or system Danio rerio; conditions: zebrafish, time 5 day, read-out: MTC
VCaP [14] = experiment: Antitumour activity against human VcaP cells xenografted in AB zebra fish assessed as tumour growth inhibition at 25 uM after 5 days by […] dye based fluorescence microscopic method; assay type: functional; conditions: 120 h, time 5 day, read-out: TGI
[15] = AUC in Sprague-Dawley rat […] at 1 mg/kg, iv measured up to 8 hrs by HPLC-MS analysis; assay type: ADME, organism-based; design: route intravenous, dose 1 mg/kg, time <=8; conditions: in vivo
[16] = target: T1, von Hippel-Lindau disease tumor suppressor/Androgen receptor (Homo sapiens); experiment: Protac activity at VHL3/AR in human VCAP cells assessed as induction of AR degradation at 2 uM after 2 hrs in presence of proteasome inhibitor MG132 by western blot analysis relative to control; assay type: cell-based
VCaP [17] = experiment: Cytotoxicity against human VCaP cells assessed as growth inhibition at 0.5 uM after 4 days by CCK8 assay relative to control; assay type: functional; conditions: 96 h, time 4 day, read-out: GI
[18] = target: T1, von Hippel-Lindau disease tumor suppressor/Androgen receptor (Homo sapiens); experiment: Protac activity at VHL3//AR in human VCAP cells assessed as induction of AR degradation at 2 uM after 2 hrs in presence of E1 inhibitor MLN4924 by western blot analysis relative to control; assay type: cell-based
[19] = Half life in Sprague-Dawley rat […] at 1 mg/kg, iv measured up to 8 hrs by HPLC-MS analysis; assay type: ADME, organism-based; conditions: in vivo
[20] = target: T1, von Hippel-Lindau disease tumor suppressor/Androgen receptor (Homo sapiens); experiment: Protac activity at VHL3/AR in human VCAP cells assessed as induction of AR degradation at 2 uM after 2 hrs in presence of VHL-3 by western blot analysis; assay type: cell-based
[21] = Toxicity in AB zebra fish assessed as obvious precipitation at 50 to 100 uM after 5 days; design: species or system Danio rerio; conditions: zebrafish, 120 h, dose 50-100 µM, time 5 day
VCaP [22] = experiment: Cytotoxicity against human VCaP cells assessed as growth inhibition at 0.125 uM after 4 days by CCK8 assay relative to control; assay type: functional; conditions: 96 h, time 4 day, read-out: GI
[23] = Toxicity in AB zebra fish assessed as mortality rate at 6.25 to 25 uM after 5 days relative to control; design: species or system Danio rerio; conditions: zebrafish, dose 6.25-25 µM, time 5 day
VCaP [24] = experiment: Antitumour activity against human VcaP cells xenografted in AB zebra fish assessed as tumour growth inhibition at 8.3 uM after 5 days by […] dye based fluorescence microscopic method; assay type: functional; conditions: 120 h, time 5 day, read-out: TGI
[25] = target: T1, von Hippel-Lindau disease tumor suppressor/Androgen receptor (Homo sapiens); experiment: Protac activity at VHL3/AR in human VCAP cells assessed as induction of AR degradation at 2 uM by western blot analysis; assay type: cell-based; conditions: time 2-4.5 hrs, TDE = time-dependent effect
VCaP [26] = experiment: Cytotoxicity against human VCaP cells assessed as growth inhibition at 1 uM after 4 days by CCK8 assay relative to control; assay type: functional; conditions: 96 h, time 4 day, read-out: GI
[27] = target: T1, von Hippel-Lindau disease tumor suppressor/Androgen receptor (Homo sapiens); experiment: Protac activity at VHL3/AR in human VCAP cells assessed as induction of AR degradation at 2 uM after 4.5 hrs by western blot analysis relative to control; assay type: cell-based
VCaP [28] = experiment: Cytotoxicity against human VCaP cells assessed as growth inhibition at 0.25 uM after 4 days by CCK8 assay relative to control; assay type: functional; conditions: 96 h, time 4 day, read-out: GI
[29] = Cmax in Sprague-Dawley rat […] at 1 mg/kg, iv measured up to 8 hrs by HPLC-MS analysis; assay type: ADME, organism-based; design: route intravenous, dose 1 mg/kg, time <=8; conditions: in vivo

What does the source list for `N#Cc1ccc(O[C@H]2C[C@H]3CC[C@@H](C2)N3C(=O)c2ccc(N3CCN(CCCCCCCNc4cccc5c4C(=O)N(C4CCC(=O)NC4=O)C5=O)CC3)cc2)cc1Cl` (stereo partly drawn)?
inhibition of growth at 0.16 µM (VCaP [1]): 15.7%; inhibition of growth at 4 µM (VCaP [2]): 47.2%; inhibition of growth at 0.8 µM (VCaP [3]): 42.4%; growth inhibition (GI) (VCaP [4]): Dose-dependent effect

With `N#Cc1ccc(O[C@H]2C[C@H]3CC[C@@H](C2)N3C(=O)c2ccc(N3CCN(CCCCCCCCCNc4cccc5c4C(=O)N(C4CCC(=O)NC4=O)C5=O)CC3)cc2)cc1Cl` (stereo partly drawn) as the compound, how does the inhibition of growth at 0.16 µM (VCaP [1]) read?
The inhibition of growth at 0.16 µM was 27.7%.

What about the inhibition of growth at 4 µM (VCaP [2]) of the same compound?
Its inhibition of growth at 4 µM is 42.1%.

And the inhibition of growth at 0.8 µM (VCaP [3])?
The inhibition of growth at 0.8 µM was 42.5%.

And the inhibition of growth at 0.032 µM (VCaP [5])?
The inhibition of growth at 0.032 µM was 15.4%.

What about the “growth inhibition (GI)” value (VCaP [4]) of the same compound?
The value was “Dose-dependent effect”.

With `CNC(=O)c1ccc(N2C(=S)N(c3ccc(C#N)c(C(F)(F)F)c3)C(=O)C2(C)C)cc1F` [ENZALUTAMIDE] as the compound, how does the Activity [6] read?
The Activity was 10%.

What about the mortality at 120 h, up to 200 µM [7] of the same compound?
The mortality at 120 h, up to 200 µM was 100%.

What about the inhibition in vivo at 5 µM (VCaP [8]) of the same compound?
The inhibition in vivo at 5 µM was 49%.

And the mortality at 120 h, 5 µM [9]?
Its mortality at 120 h, 5 µM is 0%.

Which inhibition of growth at 0.16 µM (VCaP [1]) does the source give for `N#Cc1ccc(O[C@H]2C[C@H]3CC[C@@H](C2)N3C(=O)c2ccc(N3CCN(CCCCCCCCNc4cccc5c4C(=O)N(C4CCC(=O)NC4=O)C5=O)CC3)cc2)cc1Cl` (stereo partly drawn) here?
Its inhibition of growth at 0.16 µM is 22.9%.

What about the inhibition of growth at 4 µM (VCaP [2]) of the same compound?
Its inhibition of growth at 4 µM is 51.2%.

And the inhibition of growth at 0.8 µM (VCaP [3])?
The inhibition of growth at 0.8 µM was 41.5%.

What about the inhibition of growth at 0.032 µM (VCaP [5]) of the same compound?
The inhibition of growth at 0.032 µM was 0.07%.

What about the “growth inhibition (GI)” value (VCaP [4]) of the same compound?
Its value is “Dose-dependent effect”.

Which Activity [10] does the source give for `Cc1ncsc1-c1ccc([C@H](C)NC(=O)[C@@H]2C[C@@H](O)CN2C(=O)[C@@H](NC(=O)COCCN2CCN(c3ncc(C(=O)N4[C@@H]5CC[C@H]4C[C@@H](Oc4ccc(C#N)c(Cl)c4)C5)cn3)CC2)C(C)(C)C)cc1` here?
Its Activity is “Non-Toxic”.

What about the inhibition in vivo at 2.8 µM (VCaP [11]) of the same compound?
Its inhibition in vivo at 2.8 µM is 28%.

What about the Activity [12] of the same compound?
The Activity was “Active”.

And the MNTC at 120 h [13]?
The MNTC at 120 h was 25 µM.

And the inhibition in vivo at 25 µM (VCaP [14])?
Its inhibition in vivo at 25 µM is 61%.

What about the AUC at 8 h [15] of the same compound?
The AUC at 8 h was 1770 ng·h/mL.

And the Activity [16]?
Its Activity is “inactive”.

And the inhibition of growth at 0.5 µM (VCaP [17])?
The inhibition of growth at 0.5 µM was 66.1%.

And the Activity [18]?
The Activity was “inactive”.

What about the half-life [19] of the same compound?
The half-life was 34.2 min.

And the Activity [20]?
Its Activity is “Active”.

What about the Activity [21] of the same compound?
The Activity was “Toxic”.

And the inhibition of growth at 0.125 µM (VCaP [22])?
Its inhibition of growth at 0.125 µM is 40.3%.

What about the mortality at 120 h [23] of the same compound?
The mortality at 120 h was 0%.

What about the inhibition in vivo at 8.3 µM (VCaP [24]) of the same compound?
Its inhibition in vivo at 8.3 µM is 44%.

And the Activity [25]?
Its Activity is “Tde”.

What about the inhibition of growth at 1 µM (VCaP [26]) of the same compound?
Its inhibition of growth at 1 µM is 69.6%.

And the Activity [27]?
Its Activity is “Active”.

What about the inhibition of growth at 0.25 µM (VCaP [28]) of the same compound?
The inhibition of growth at 0.25 µM was 56.4%.

And the Cmax [29]?
Its Cmax is 14400 ng/mL.
